Source: patent publication US10562912B2 (C&C Research Laboratories, priority 2013, dated 2020)

Key:
Assay type in all cases: cell-based
MDA-MB-231 = test: Cell growth inhibition assay, breast cancer cell line MDA-MB-231; conditions: Homo sapiens; MDA-MB-231 breast cancer cell line, 5,000 cells/well
Procedure: The inhibitory effects of the compounds of the present invention against the growth of cancer cells were evaluated as shown below. The cancer cell lines including stomach cancer cell line (AGS), breast cancer cell lines (MDA-MB-231, MDA-MB-468, and BT-549), prostate cancer cell lines (LNCaP and DU-145), colon cancer cell line (HCT116), ovarian cancer cell line (SW626), liver cancer cell line (Hep3B), kidney cancer cell line (ACHN), lung cancer cell line (NCI-H23) and blood cancer cell lines (HEL92.1.7 and U266) were cultured under the protocol provided by each supplier. A medium supplemented with 10 ng/mL of IL-6 was used for LNCaP, a prostate cancer cell line, when treated with a drug. Each type of cells to be used in experiments were sub-cultured in a 96-well plate by counting the exact number of cells using Tali™ Image-based Cytometer (Life Technologies). In a 96-well plate, AGS, HCT116, and DU-145 were employed with 3,000 cells/well; NCI-H23, SW626, Hep3B, ACHN, BT-549, MDA-MB-231, HEL92.1.7, and U266 were employed with 5,000 cells/well; and LNCaP and MDA-MB-468 were employed with 10,000 cells/well. The cells were treated with the compounds listed in Examples which were diluted in various concentrations. Upon completion of the compounds treatment, AGS, HCT116, SW626, DU145, NCI-H23, Hep3B, ACHN, BT-549, LNCaP, HEL92.1.7, and U266 cells were cultured at 37° C. under 5% CO2 for from 72 to 96 hours, and MDA-MB-231 and MDA-MB-468 cells were cultured at 37° C. in air for from 72 to 96 hours. Subsequently, the cells were observed under microscope and drug precipitation and particular findings were investigated and recorded. And then, the 96-well plate was placed at room temperature for 30 minutes, added with 20 μL/well of CellTiter-Glo solution (Cat No. G7573, Promega) and shaken for 10 minutes, followed by being subjected to the measurement using PHERAstar™ microplate reader (BMG LABTECH) according to the supplier's general luminometer protocol. Wells where only culture liquid added without cell plating were used as a negative control, whereas wells where culture liquid containing 0.1% DMSO instead of the compounds listed in Examples were used as a positive control.

STAT3 = target: T1, STAT3 (Homo sapiens, UniProt P40763); test: STAT3 reporter gene assay (luciferase), LNCaP stable cell line (pSTAT3-TA-luc), IL-6 stimulation
T1 construct: plasmid pSTAT3-TA-luc), which contains a stably operating STAT3 promoter; endogenous in cells
T1 sequence (P40763 whole entry): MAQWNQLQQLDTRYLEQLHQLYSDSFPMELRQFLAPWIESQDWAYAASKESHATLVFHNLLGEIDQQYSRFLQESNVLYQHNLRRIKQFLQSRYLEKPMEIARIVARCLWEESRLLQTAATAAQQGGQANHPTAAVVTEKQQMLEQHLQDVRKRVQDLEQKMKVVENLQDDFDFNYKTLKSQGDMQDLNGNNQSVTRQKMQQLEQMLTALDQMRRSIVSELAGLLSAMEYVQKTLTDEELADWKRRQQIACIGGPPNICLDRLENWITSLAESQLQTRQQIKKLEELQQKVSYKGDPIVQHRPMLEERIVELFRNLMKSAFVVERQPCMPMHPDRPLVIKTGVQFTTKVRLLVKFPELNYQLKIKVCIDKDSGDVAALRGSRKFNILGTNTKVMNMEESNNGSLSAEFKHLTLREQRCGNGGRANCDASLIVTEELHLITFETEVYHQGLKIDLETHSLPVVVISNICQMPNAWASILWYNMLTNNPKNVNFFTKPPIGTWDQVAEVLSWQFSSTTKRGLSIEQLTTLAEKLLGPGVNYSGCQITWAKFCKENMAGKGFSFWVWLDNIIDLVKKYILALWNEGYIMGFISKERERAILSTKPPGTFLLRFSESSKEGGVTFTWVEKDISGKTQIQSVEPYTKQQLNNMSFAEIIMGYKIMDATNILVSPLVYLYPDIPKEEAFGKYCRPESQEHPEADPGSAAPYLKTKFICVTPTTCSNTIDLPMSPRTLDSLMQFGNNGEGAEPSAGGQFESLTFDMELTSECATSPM
Procedure, shortened: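 Cytotoxicity was run on a duplicate plate with CellTiter-Glo, while the other plate gave luciferase read-outs from lysed LNCaP pSTAT3-TA-luc reporter cells. Cells were treated with graded compound concentrations plus IL-6 (10 ng/mL final) for 24–48 h in 3% DCC-FBS medium. Unstimulated and stimulated wells served as negative and positive controls.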

LNCaP = test: Cell growth inhibition assay, prostate cancer cell line LNCaP (medium with 10 ng/mL IL-6); conditions: Homo sapiens, medium supplemented with 10 ng/mL of IL-6, 10,000 cells/well

Structure (SMILES): CCC(CC)(c1ccc(F)cc1)c1cc(Br)cc(NC(=O)c2cc3cc(NS(C)(=O)=O)ccc3s2)c1 [Example 53, N-(3-bromo-5-(3-(4-fluorophenyl)pentan-3-yl)phenyl)-5-(methylsulfonamido)benzo[b]thiophene-2-carboxamide]
- IC50 (MDA-MB-231): 0.022 µM
- IC50 (STAT3): 0.026 µM
- IC50 (LNCaP): 0.07 µM

Structure (SMILES): CCC(CC)(c1cc(NC(=O)c2cc3ccc(NS(C)(=O)=O)cc3[nH]2)cc(OC)c1)c1cc(OC)cc(OC(F)(F)F)c1 [Example 55, N-(3-methoxy-5-(3-(3-methoxy-5-(trifluoromethoxy)phenyl)pentan-3-yl)phenyl)-6-(methylsulfonamido)-1H-indole-2-carboxamide]
- IC50 (MDA-MB-231): 0.081 µM
- IC50 (STAT3): 0.16 µM
- IC50 (LNCaP): 0.54 µM

Structure (SMILES): C#Cc1cc(NC(=O)c2cc3ccc(NS(C)(=O)=O)cc3[nH]2)cc(C(C)(C)c2ccc(F)cc2)c1 [Example 107, N-(3-ethynyl-5-(2-(4-fluorophenyl)propan-2-yl)phenyl)-6-(methylsulfonamido)-1H-indole-2-carboxamide]
- IC50 (MDA-MB-231): 0.29 µM
- IC50 (STAT3): 0.42 µM
- IC50 (LNCaP): 1.2 µM

Structure (SMILES): C#Cc1cc(NC(=O)c2cc3cc(NS(C)(=O)=O)ccc3s2)cc(C(C)(C)c2ccc(F)cc2)c1 [Example 108, N-(3-ethynyl-5-(2-(4-fluorophenyl)propan-2-yl)phenyl)-5-(methylsulfonamido)benzo[b]thiophene-2-carboxamide]
- IC50 (MDA-MB-231): 0.073 µM
- IC50 (STAT3): 0.078 µM
- IC50 (LNCaP): 0.31 µM

Structure (SMILES): C#Cc1cc(NC(=O)c2cc3cc(NS(C)(=O)=O)ccc3s2)cc(C(C)(C)c2ccc(F)cc2F)c1 [Example 109, N-(3-(2-(2,4-difluorophenyl)propan-2-yl)-5-ethynylphenyl)-5-(methylsulfonamido)benzo[b]thiophene-2-carboxamide]
- IC50 (MDA-MB-231): 0.09 µM
- IC50 (STAT3): 0.078 µM
- IC50 (LNCaP): 0.42 µM

Structure (SMILES): CC(C)(c1ccc(F)cc1)c1cccc(NC(=O)c2sc3cc(NS(C)(=O)=O)ccc3c2Cl)c1 [Example 110, 3-chloro-N-(3-(2-(4-fluorophenyl)propan-2-yl)phenyl)-6-(methylsulfonamido)benzo[b]thiophene-2-carboxamide]
- IC50 (MDA-MB-231): 3.3 µM
- IC50 (STAT3): 4.3 µM
- IC50 (LNCaP): > 10 µM

Structure (SMILES): CS(=O)(=O)Nc1ccc2c(Cl)c(C(=O)Nc3cccc(-c4ccc(F)cc4F)c3)sc2c1 [Example 111, 3-chloro-N-(2′,4′-difluoro-[1,1′-biphenyl]-3-yl)-6-(methylsulfonamido)benzo[b]thiophene-2-carboxamide]
- IC50 (MDA-MB-231): 6.3 µM
- IC50 (STAT3): > 10 µM
- IC50 (LNCaP): > 10 µM

Structure (SMILES): COc1cc(NS(C)(=O)=O)cc2cc(C(=O)Nc3cccc(-c4ccc(F)cc4F)c3)oc12 [Example 112, N-(2′,4′-difluoro-[1,1′-biphenyl]-3-yl)-7-methoxy-5-(methylsulfonamido)benzofuran-2-carboxamide]
- IC50 (MDA-MB-231): > 10 µM
- IC50 (STAT3): 6.8 µM
- IC50 (LNCaP): 8.6 µM

Structure (SMILES): COc1cc(NS(C)(=O)=O)cc2cc(C(=O)Nc3cccc(C(C)(C)c4ccc(F)cc4)c3)oc12 [Example 113, N-(3-(2-(4-fluorophenyl)propan-2-yl)phenyl)-7-methoxy-5-(methylsulfonamido)benzofuran-2-carboxamide]
- IC50 (MDA-MB-231): 6.4 µM
- IC50 (STAT3): 8.9 µM
- IC50 (LNCaP): > 10 µM

Structure (SMILES): CC(C)(c1cccc(CN2CCNCC2)c1)c1cc(Br)cc(NC(=O)c2cc3cc(NS(C)(=O)=O)ccc3s2)c1 [Example 118, N-(3-bromo-5-(2-(3-(piperazin-1-ylmethyl)phenyl)propan-2-yl)phenyl)-5-(methylsulfonamido) benzo[b]thiophene-2-carboxamide]
- IC50 (MDA-MB-231): 8.6 µM
- IC50 (STAT3): > 10 µM
- IC50 (LNCaP): > 10 µM

Structure (SMILES): CC(C)(c1cccc(CN2CCNCC2)c1)c1cc(Br)cc(NC(=O)c2cc3ccc(NS(C)(=O)=O)cc3[nH]2)c1 [Example 119, N-(3-bromo-5-(2-(3-(piperazin-1-ylmethyl)phenyl)propan-2-yl)phenyl)-6-(methylsulfonamido)-1H-indole-2-carboxamide]
- IC50 (MDA-MB-231): 6.1 µM
- IC50 (STAT3): > 10 µM
- IC50 (LNCaP): > 10 µM

Structure (SMILES): CC(C)(c1cccc(C#N)c1)c1cccc(NC(=O)c2cc3cc(NS(C)(=O)=O)ccc3s2)c1 [Example 224, N-(3-(2-(3-cyanophenyl)propan-2-yl)phenyl)-5-(methylsulfonamido)benzo[b]thiophene-2-carboxamide]
- IC50 (MDA-MB-231): 0.033 µM
- IC50 (STAT3): 0.26 µM
- IC50 (LNCaP): 0.27 µM

Structure (SMILES): COc1cc2cc(C(=O)Nc3cccc(-c4ccc(F)cc4F)c3)[nH]c2cc1NS(C)(=O)=O [Example 236, N-(2′,4′-difluoro-[1,1′-biphenyl]-3-yl)-5-methoxy-6-(methylsulfonamido)-1H-indole-2-carboxamide]
- IC50 (MDA-MB-231): 0.41 µM
- IC50 (STAT3): 0.31 µM
- IC50 (LNCaP): 2.7 µM

Structure (SMILES): CS(=O)(=O)Nc1ccc2sc(C(=O)Nc3cccc(-c4ccc(F)cc4F)c3)cc2c1 [Example 237, N-(2′,4′-difluoro-[1,1′-biphenyl]-3-yl)-5-(methylsulfonamido)benzo[b]thiophene-2-carboxamide]
- IC50 (MDA-MB-231): 0.01 µM
- IC50 (STAT3): 0.11 µM
- IC50 (LNCaP): 0.61 µM

Structure (SMILES): CS(=O)(=O)Nc1ccc2oc(C(=O)Nc3cccc(-c4ccc(F)cc4F)c3)cc2c1 [Example 238, N-(2′,4′-difluoro-[1,1′-biphenyl]-3-yl)-5-(methylsulfonamido)benzofuran-2-carboxamide]
- IC50 (MDA-MB-231): 0.55 µM
- IC50 (STAT3): 0.27 µM
- IC50 (LNCaP): 2.4 µM

Structure (SMILES): O=C(Nc1cccc(-c2ccc(F)cc2F)c1)c1cc2cc(OC(F)(F)F)ccc2[nH]1 [Example 239, N-(2′,4′-difluoro-[1,1′-biphenyl]-3-yl)-5-(trifluoromethoxy)-1H-indole-2-carboxamide]
- IC50 (MDA-MB-231): > 10 µM
- IC50 (STAT3): > 10 µM
- IC50 (LNCaP): 8.3 µM

Structure (SMILES): CS(=O)(=O)c1ccc2cc(C(=O)Nc3cccc(-c4ccc(F)cc4F)c3)[nH]c2c1 [Example 240, N-(2′,4′-difluoro-[1,1′-biphenyl]-3-yl)-6-(methylsulfonyl)-1H-indole-2-carboxamide]
- IC50 (MDA-MB-231): > 10 µM
- IC50 (STAT3): > 10 µM
- IC50 (LNCaP): > 10 µM

Structure (SMILES): Cc1c(C(=O)Nc2cccc(-c3ccc(F)cc3F)c2)sc2cc(NS(C)(=O)=O)ccc12 [Example 241, N-(2′,4′-difluoro-[1,1′-biphenyl]-3-yl)-3-methyl-6-(methylsulfonamido)benzo[b]thiophene-2-carboxamide]
- IC50 (MDA-MB-231): 2.7 µM
- IC50 (STAT3): 1.8 µM
- IC50 (LNCaP): 5.4 µM

Structure (SMILES): CS(=O)(=O)Nc1ccc2cc(C(=O)Nc3cccc(-c4ccc(F)cc4F)c3)sc2c1 [Example 242, N-(2′,4′-difluoro-[1,1′-biphenyl]-3-yl)-6-(methylsulfonamido)benzo[b]thiophene-2-carboxamide]
- IC50 (MDA-MB-231): 0.54 µM
- IC50 (STAT3): 0.96 µM
- IC50 (LNCaP): 4 µM

Structure (SMILES): Cc1c(C(=O)Nc2cccc(-c3ccc(F)cc3F)c2)sc2ccc(NS(C)(=O)=O)cc12 [Example 243, N-(2′,4′-difluoro-[1,1′-biphenyl]-3-yl)-3-methyl-5-(methylsulfonamido)benzo[b]thiophene-2-carboxamide]
- IC50 (MDA-MB-231): 1.6 µM
- IC50 (STAT3): 7.2 µM
- IC50 (LNCaP): 6.4 µM

Structure (SMILES): CC(=O)c1cc(NC(=O)c2cc3ccc(NS(C)(=O)=O)cc3[nH]2)cc(-c2ccc(F)cc2F)c1 [Example 245, N-(5-acetyl-2′,4′-difluoro-[1,1′-biphenyl]-3-yl)-6-(methylsulfonamido)-1H-indole-2-carboxamide]
- IC50 (MDA-MB-231): 2.6 µM
- IC50 (STAT3): 1.4 µM
- IC50 (LNCaP): 4.9 µM

Structure (SMILES): CS(=O)(=O)Nc1ccc2cc(C(=O)Nc3cc(-c4ccc(F)cc4F)c4cn[nH]c4c3)[nH]c2c1 [Example 246, N-(4-(2,4-difluorophenyl)-1H-indazol-6-yl)-6-(methylsulfonamido)-1H-indole-2-carboxamide]
- IC50 (MDA-MB-231): 3.5 µM
- IC50 (STAT3): 8.4 µM
- IC50 (LNCaP): 9.2 µM

Structure (SMILES): CNS(=O)(=O)Nc1ccc2cc(C(=O)Nc3cccc(-c4ccccc4C(F)(F)F)c3)[nH]c2c1 [Example 269]
- IC50 (MDA-MB-231): 2.1 µM
- IC50 (STAT3): 2.3 µM
- IC50 (LNCaP): 4.1 µM

Structure (SMILES): COc1cc2cc(C(=O)Nc3cc(Br)cc(-c4ccc(F)cc4F)c3)[nH]c2cc1NS(C)(=O)=O [Example 303, N-(5-bromo-2′,4′-difluoro-[1,1′-biphenyl]-3-yl)-5-methoxy-6-(methylsulfonamido)-1H-indole-2-carboxamide]
- IC50 (MDA-MB-231): 0.02 µM
- IC50 (STAT3): 0.23 µM
- IC50 (LNCaP): 0.72 µM
